Source: US12624068B2, “Exon skipping by peptide nucleic acid derivatives” (OliPass Corporation, priority 2016, dated 2026)
[C(1O2)] = modified PNA monomer acting as cytosine, C(pOq) type, 1O2; [A(5)] = modified PNA monomer acting as adenine, A(p) type, p=5; [G(6)] = modified PNA monomer acting as guanine, G(p) type, p=6; {Fethoc} = N-terminal Fethoc cap; {NH2} = C-terminal amide

Key:
[1] = test system: mouse dystrophin pre-mRNA; assay: Dystrophin nested PCR (Method A) in muscles of mdx mice; format: in vivo
Protocol: “DMD-ASO 1” and “DMD-ASO 4” were evaluated for their ability to induce exon skipping in muscles of mdx mice by subcutaneous administration as follows. [ASO Treatment & Sampling Muscle Tissues] The injection solutions were prepared by diluting an aqueous mother stock solution of “DMD-ASO 1” or “DMD-ASO 4” in PBS to 500 nM. Male mdx mice were subcutaneously administered with vehicle only (negative control), “DMD-ASO 1” or “DMD-ASO 4” at 2 mL/Kg, 2× per day (BID) for 3 days. One day after the final dose, the animals were anesthetized with zoletil/rompun, and sacrificed to sample muscle tissues including the heart, diaphragm, gatrocnemius, quadriceps, and triceps. [RNA Extraction] Muscle samples were homogenized by grinding in a tube kept on ice, and subjected to total RNA extraction with 1 mL trizol reagent (Invitrogen) per ca 100 mg muscle tissue. [cDNA Synthesis by One-Step RT-PCR] 500 ng of RNA template was used in a 25 μL reverse transcription reaction using Super Script® One-Step RT-PCR kit with Platinum® Taq polymerase (Cat. Number 10928-042, Invitrogen) and a set of exon-specific primers [DMD-exon 21_forward: (5'→3') […] NO: 103); and DMD-exon 25_reverse: (5'→3') […] [Nested PCR Amplification] 1 μL of cDNA was further amplified in a 20 μL nested PCR (Cat. Number K2612, Bioneer) reaction against a set of primers [DMD-exon 22n_forward: (5'→3') […] NO: 105); and DMD-exon 25n_reverse: (5'→3') […] [Identification of Exon Skipping Product] The skipping of exon 23 was detected only in the animals treated with “DMD-ASO 1” and “DMD-ASO 4”. […] Mdx mice subcutaneously received “DMD-ASO 1” at 0 (negative control) or 10 pmole/Kg, 2× per day for 5 days. (2 animals per group) One day after the final dose, the animals were sacrificed for tissue sampling. The triceps samples were evaluated for the skipping of exon 23 according to the nested RT-PCR method described in “DMD Example 1”.

mdx mice = assay: Grip test in mdx mice chronically administered; format: in vivo, mouse; details: mdx mice, 10, 50 or 200 pmole/Kg subcutaneous chronic, Week 0 to 30
Protocol: “DMD-ASO 1” was evaluated by chronically administering to mdx mice for its ability to improve muscle function by grip test, to induce exon skipping, to upregulate the expression of the full-length dystrophin (i.e., dystrophin protein with the C-terminus encoded) by IHC, and to improve the muscular integrity by histopathology with H&E staining as described below.
[Grouping & ASO Treatment] Male mdx mice (7 weeks old) were randomly assigned to 4 groups of 0 (mdx negative control), 10, 50, and 200 pmole/Kg “DMD-ASO 1” based on individual grip strength scores by grip test. (N=12 per group) A satellite group of 12 male C57BL/6 mice (7 weeks old) was included in this study as the wild type negative control group for the full-length dystrophin expression level.
The 50 and 200 pmole/Kg group subcutaneously received “DMD-ASO 1” as dissolved in PBS, 2× per week until the final sacrifice in Week 43. In the meantime, the 10 pmole/Kg group subcutaneously received “DMD-ASO 1” initially 2× per week during Week 0 to 8, and 3× per week afterwards to increase the ASO exposure.
[Muscle Function by Grip Test] Muscle function was evaluated on a weekly basis by grip strength on a grip strength-meter (Cat. Number 47,200, Ugo Basile) according to the literature. [J. Appl. […] The grip strength scores by group were evaluated for statistical significance by student's t-test against the mdx negative control group.

[2] = test system: sodium current in PC3 cells; assay: CoroNa assay of sodium current in PC3 cells; format: cell-based, human; details: 30 hours
Protocol: Cellular sodium current is measured by patch clamp. As sodium ions enter cell, the intra-cellular sodium ion level increases. The intra-cellular sodium level can be probed using a sodium ion sensitive dye. “CoroNa Green” is a dye with a sodium ion chelator of crown ether type. Upon chelation with a sodium ion, “CoroNa Green” emits green fluorescence. “CoroNa Green” has been used to indirectly measure the intra-cellular sodium level. […] [Proc. Natl. Acad. Sci. USA vol 106(38), 16145-16150 (2009)]
PC3 cells are known to abundantly express the human SCN9A mRNA, although there are other SCN subtypes concomitantly expressed. [Br J. Pharmacol. vol 156, 420-431 (2009)] Thus an inhibition of SCN9A mRNA expression may lead to a considerable reduction of the sodium current in PC3 cells, if the sodium ion current by the Nav1.7 sodium channel subtype occupies a marked portion of the total sodium ion current in PC3 cells. It is note that the SCN9A mRNA encodes the Nav1.7 sodium channel subtype.
“SCN-ASO 7” was evaluated for its ability to inhibit the sodium ion current in PC3 cells using “CoroNa Green” as follows.
[ASO Treatment] PC3 cells grown in 35 mm culture dish containing 2 mL F-12K medium were treated with “SCN-ASO 7” at 0 zM (negative control), 100 zM or 1 aM.
[CoroNa Assay] 30 hours later, the cells were washed with 2 mL HBSS (Hank's Balanced Salt Solution, Cat. Number 14025-092, Life Technologies), and then charged with 2 mL fresh HBSS. Then the cells were treated with 5 μM “CoroNa Green” (Cat. Number C36676, Life Technologies) at 37° C. 30 min later, the cells were washed 2× with 2 mL HBSS, and charged with 2 mL fresh HBSS. The culture dish was mounted on an Olympus fluorescence microscope equipped with a digital video camera to continuously capture the green fluorescence images of the cells. The cells were acutely treated with 100 mM NaCl, and then the changes in fluorescence cellular images were digitally recorded over a period of 3 min. There were about 4 cells per frame on average. The fluorescence intensities from each individual cell were traced at the resolution of a second. The traces of the intracellular fluorescence intensities from individual cells were overlaid and averaged at each time point. The average of the traces from the individual cells of each ASO concentration were plotted as provided in FIG. 30A using ImageJ program (version 1.50i, NIH). The average fluorescence intensity trace was taken as the individual intra-cellular sodium concentration trace for the cells treated with “SCN-ASO 7” at 0 (negative control), 100 or 1,000 zM.
“SCN-ASO 3” was evaluated for its ability to inhibit the sodium current in PC3 cells using “CoroNa Green” according to the protocol described in “SCN9A Example 5”, unless noted otherwise.
“SCN-ASO 8” was evaluated for its ability to inhibit the sodium current in PC3 cells using “CoroNa Green” according to the protocol described in “SCN9A Example 3”, unless noted otherwise.

Substance	skipping of dystrophin exon 23 (nested PCR Method A) ([1]; subcutaneous 10 pmole/Kg, 2× per day for 5 days, triceps)	skipping of dystrophin exon 23 (nested PCR Method A) ([1]; subcutaneous 1,000 pmole/Kg BID for 3 days, quadriceps and gastrocnemius)	increase of grip strength compared to the mdx negative control group (mdx mice)	decrease of sodium current (CoroNa) ([2]; PC3 cells, 100 zM)	decrease of sodium current / sodium channel activity (CoroNa) ([2]; PC3 cells, 1,000 zM)	average cellular fluorescence intensity (CoroNa Green) ([2]; PC3 cells, 1,000 zM, at 100 sec after 100 mM NaCl)
Fethoc-A(5)GA-G(6)CC(1O2)-TCA-A(5)AA(5)-T-NH2 (antisense AGAGCCTCAAAAT; Fethoc N-cap, C-terminal amide, chemistry not fully specified) [DMD-ASO 1]	induced the skipping of exon 23	detected	30-50%	–	–	–
Fethoc-AC(1O2)T-TA(5)C-G(6)CA-A(5)AA(5)-AC(1O2)A-A(5)-NH2 (ACTTACGCAAAAACAA; all peptide nucleic acid (PNA), [C(1O2)] at 2, 14, [A(5)] at 5, 10, 12, 16, [G(6)] at 7, 5' {Fethoc}, 3' {NH2}; peptide nucleic acid written N to C) [SCN-ASO 7]	–	–	–	no notable decrease	37%	51.47 arbitrary unit
